# Measured values reported in patent US12691109B2, “Bifunctional aggregation-induced emission luminogen for monitoring and killing of multidrug-resistant bacteria” (The Hong Kong University of Science and Technology, priority 2018, dated 2026).
# Legend:
# Type in all cases: cell-based
# [1] = system: S. epidermidis; test: Bacteria staining with TriPE-NT and PI, CLSM; settings: 10 min
# Description: (§1) TriPE-NT: Ex, 405 nm, Em, 500-560 nm; PI: Ex, 514 nm, Em, 600-700 nm.
# (§2) FIG. 21B is a graph plotting stained percentages for E. coli, MDR E. coli, K. pneumoniae, MDR K. pneumoniae, S. epidermidis, MDR S. epidermidis, S. aureus, and MDR S. aureus.
# (§3) FIG. 21C is a graph plotting percentage of dead bacteria stained by propidium iodine (PI) after the bacteria were incubated with 10 μM of TriPE-NT or PI for 10 min.
# (§4) To indicate the status of the bacteria after TriPE-NT treatment, the bacteria was incubated with commercial dead bacteria-staining fluorescent reagent propidium iodide (PI) and TriPE-NT at the same time. Thanks to the AIE characteristics and water solubility of TriPE-NT, there was almost no background fluorescence in the imaging field. E. coli and S. epidermidis, which emitted bright orange (TriPE-NT) or red (PI) fluorescence, are clearly visualized under confocal laser scanning microscope (CLSM) (FIG. 21A-C, 22-23). […] In comparison, relatively low percentage of Gram-negative bacteria were stained by TriPE-NT (e.g., 88.1±9.8% E. coli, 84.3±12.7% MDR E. coli, 47.9±7.7% K. pneumoniae and 35.8±4.9% MDR K. pneumoniae) (FIG. 21B, FIG. 22). […] By contrast, relatively low percentages of E. coli (22.1±12.2% E. coli) were co-stained by both TriPE-NT and PI (FIGS. 21A, C), which is also similar to other Gram-negative bacteria (15.3±3.7%, MDR E. coli, 8.8±3.2%, K. pneumoniae and 6.4±2.6% MDR K. pneumoniae) (FIGS. 21A & C, 22). The reason for this difference possibly is ascribed to the extra membrane of Gram-negative bacteria which is absent in Gram-positive bacteria. These observations also illustrated that both Gram-negative bacteria and Gram-positive bacteria are vulnerable to TriPE-NT treatment, the possible reason is that these bacteria with negatively charged membranes, could anchor, uptake, and aggregate the positively charged probe, which restricts the intramolecular motion of the probe and causes their fluorescence emission.
# [2] = system: E. coli; test: Bacteria staining with TriPE-NT and PI, CLSM; settings: 10 min
# Description: as §1, §2, §3, §4
# [3] = system: MDR S. aureus; test: Bacteria staining with TriPE-NT and PI, CLSM; settings: 10 min
# Description: as §2, §3
# (§5) TriPE-NT: Ex=405 nm, Em=500-560 nm; PI: Ex=514, Em=600-700.
# as §4
# [4] = system: MDR S. epidermidis; test: Bacteria staining with TriPE-NT and PI, CLSM; settings: 10 min
# Description: as §2, §3, §5, §4
# [5] = system: S. aureus; test: Bacteria staining with TriPE-NT and PI, CLSM; settings: 10 min
# Description: as §2, §3, §5, §4
# [6] = system: S. epidermidis; test: Light-enhanced bacteria killing, plate counting method; settings: 5 μM, light irradiation of 2 min
# Description: (§6) FIGS. 15C-F are graphs depicting bacteria survival rates for bacteria that were incubated with TriPE-NT (10 μM) for 10 min, the bacteria suspensions (50 μL) were plated on agar plates and treated by white-light illumination (4 mW cm^−2) for 0, 2 and 30 min respectively. FIG. 15C is a graph plotting survival rate versus time of E. coli and MDR E. coli. FIG. 15D is a graph plotting survival rate versus time of K. pneumoniae and MDR K. pneumoniae. FIG. 15E is a graph plotting survival rate versus time of S. epidermidis and MDR S. epidermidis. FIG. 15F is a graph plotting survival rate versus time of S. aureus and MDR S. aureus.
# (§7) FIGS. 16A-B are graphs depicting bacteria survival rates for bacteria that were incubated with TriPE-NT (0, 5, 10 μM) for 0 (S-0) and 10 (S-10) min, the bacteria suspensions (50 μL) were plated on agar plates and treated by white-light illumination (4 mW cm^−2) for 2 (I-2), 10 (I-10) and 30 (I-30) min respectively. FIG. 16A is a graph plotting the survival rate versus time of E. coli. FIG. 16B is a graph plotting the survival rate versus time of S. epidermidis.
# (§8) The bacteria killing effect of TriPE-NT was evaluated on both wild and clinically isolated MDR bacteria by a traditional plate counting method. First, E. coli and S. epidermidis, as the representative of Gram-negative (G−) and Gram-positive (G+) bacteria, were used to determine the effective bactericidal concentration and illumination time. The bacteria were incubated with TriPE-NT (0, 5, 10 μM) for 0 and 10 min, the bacteria suspensions (50 μL) were plated on agar plates and treated by white-light illumination (4 mW cm^−2) for 2, 10 and 30 min respectively (FIGS. 16A-B). […] Thus, 10 μM TriPE-NT and light irradiation for 2 min or 30 min were set as experimental conditions in the following experiments.
# [7] = system: E. coli; test: as above
# Description: as §6, §7, §8
# [8] = system: MDR K. pneumoniae; test: Bacteria staining with TriPE-NT and PI, CLSM; settings: 10 min
# Description: as §2, §3
# (§9) TriPE-NT: Ex=405 nm, Em=500-560 nm; PI: Ex=514, Em=600-700. The scale bar is equal to 5 μm.
# as §4
# [9] = system: MDR E. coli; test: Bacteria staining with TriPE-NT and PI, CLSM; settings: 10 min
# Description: as §2, §3, §9, §4
# [10] = system: K. pneumoniae; test: Bacteria staining with TriPE-NT and PI, CLSM; settings: 10 min
# Description: as §2, §3, §9, §4
compound,measurement,setting,value
COc1ccc(C(=Cc2ccc(-c3ccc4c5c(cccc35)C(=O)N(CCCCn3c[n+](Cc5ccc(F)cc5F)cn3)C4=O)cc2)c2ccc(OC)cc2)cc1 [TriPE-NT],percentage of S. epidermidis co-stained by TriPE-NT and PI (dead bacteria),[1]; 10 μM TriPE-NT and PI,80.9±15.8%
same,percentage of S. epidermidis stained by TriPE-NT,[1]; 10 μM,96.2±5.6%
same,percentage of E. coli co-stained by TriPE-NT and PI (dead bacteria),[2]; 10 μM TriPE-NT and PI,22.1±12.2%
same,percentage of E. coli stained by TriPE-NT,[2]; 10 μM,88.1±9.8%
same,percentage of MDR S. aureus co-stained by TriPE-NT and PI (dead bacteria),[3]; 10 μM TriPE-NT and PI,57.4±1.3%
same,percentage of MDR S. aureus stained by TriPE-NT,[3]; 10 μM,80.9±1.7%
same,percentage of MDR S. epidermidis co-stained by TriPE-NT and PI (dead bacteria),[4]; 10 μM TriPE-NT and PI,74.8±11.4%
same,percentage of MDR S. epidermidis stained by TriPE-NT,[4]; 10 μM,92.9±6.6%
same,percentage of S. aureus co-stained by TriPE-NT and PI (dead bacteria),[5]; 10 μM TriPE-NT and PI,67.3±12.2%
same,percentage of S. aureus stained by TriPE-NT,[5]; 10 μM,86.1±1.9%
same,S. epidermidis killed,[6],all S. epidermidis were killed
same,E. coli killed,"[7]; 10 μM, white light 4 mW cm^−2, 30 min",killed all and all
same,survival rate of E. coli,"[7]; in darkness, 10 μM TriPE-NT",approximately 6.8±0.6%
same,percentage of MDR K. pneumoniae co-stained by TriPE-NT and PI (dead bacteria),[8]; 10 μM TriPE-NT and PI,6.4±2.6%
same,percentage of MDR K. pneumoniae stained by TriPE-NT,[8]; 10 μM,35.8±4.9%
same,percentage of MDR E. coli co-stained by TriPE-NT and PI (dead bacteria),[9]; 10 μM TriPE-NT and PI,15.3±3.7%
same,percentage of MDR E. coli stained by TriPE-NT,[9]; 10 μM,84.3±12.7%
same,percentage of K. pneumoniae co-stained by TriPE-NT and PI (dead bacteria),[10]; 10 μM TriPE-NT and PI,8.8±3.2%
same,percentage of K. pneumoniae stained by TriPE-NT,[10]; 10 μM,47.9±7.7%
